Experimental findings from patent publication US4603145A, “Antiatherosclerotic diphenyl alkanamides” (American Cyanamid Company, priority 1983, dated 1986) are described below.

The target of the test is T1, fatty acyl CoA:cholesterol acyl transferase (ACAT) (Rattus norvegicus, UniProt O70536).
T1 construct: The supernatant, containing the microsomal fraction, served as the source of the cholesterol-esterifying enzyme; from tissue; host or cells: rat adrenals (supernatant of homogenate, 1,000 x g, containing the microsomal fraction)
T1 sequence (O70536 1-545): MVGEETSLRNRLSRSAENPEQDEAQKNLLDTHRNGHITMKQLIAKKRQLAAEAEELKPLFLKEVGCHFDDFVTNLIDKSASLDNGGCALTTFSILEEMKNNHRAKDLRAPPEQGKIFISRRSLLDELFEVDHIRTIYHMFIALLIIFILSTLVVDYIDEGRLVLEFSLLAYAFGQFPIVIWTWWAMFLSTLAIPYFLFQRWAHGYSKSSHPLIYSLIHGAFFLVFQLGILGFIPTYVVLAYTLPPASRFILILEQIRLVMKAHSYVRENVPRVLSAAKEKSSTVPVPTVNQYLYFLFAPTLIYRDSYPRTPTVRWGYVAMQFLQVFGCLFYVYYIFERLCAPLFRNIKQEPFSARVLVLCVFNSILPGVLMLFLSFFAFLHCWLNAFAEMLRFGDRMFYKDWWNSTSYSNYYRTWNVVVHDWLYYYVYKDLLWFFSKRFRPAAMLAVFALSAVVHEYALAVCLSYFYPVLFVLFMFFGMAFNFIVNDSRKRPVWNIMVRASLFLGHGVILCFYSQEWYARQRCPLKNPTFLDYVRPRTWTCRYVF
Description: Inhibition of enzymatic esterification of cholesterol (ACAT), rat adrenal microsomal supernatant. The note with it: final concentration of the test compound 5.2 μg./ml., 14C-oleoyl CoA, 37° C., read-out: % INHIBITION (percent inhibition of the ACAT enzyme compared to control values). It is filed as biochemical. As for the experimental part: The compounds of the present invention were tested for their ability to inhibit the enzymatic esterification of cholesterol according to the following procedure:
Rat adrenals were homogenized in 0.2M monobasic potassium phosphate buffer, pH 7.4, and centrifuged at 1,000 times gravity for 15 minutes at 5° C. The supernatant, containing the microsomal fraction, served as the source of the cholesterol-esterifying enzyme, fatty acyl CoA:cholesterol acyl transferase (ACAT). A mixture comprising 50 parts of adrenal supernatant, 10 parts of albumin (BSA) (50 mg./ml.), 20 parts of oleoyl CoA (^14 C-0.4 μCi), 3 parts of test compound, and 500 parts of buffer was pre-incubated at 37° C. for 10 minutes. After treatment with 20 parts of oleoyl CoA (^14 C-0.4 μCi), the mixture was incubated at 37° C. for 10 minutes. A control mixture, omitting the test compound, was prepared and treated in the same manner. The lipids from the incubation mixture were extracted into an organic solvent and separated by thin-layer chromatography. The cholesterol ester fraction was counted in a scintillation counter. This procedure is a modification of that described by Hashimoto, et al., Life Scie., 12 (Part II), 1-12 (1973).
The results of this test on representative compounds of this invention appear in Table I. The final concentration of the test compound was 5.2 μg./ml., and effectiveness of the compound is expressed as percent inhibition of the ACAT enzyme compared to control values.

One may read the inhibition as the change of the read-out against control, counted positive when it falls. Consider `NC(=O)CC(c1ccc(Cl)cc1)c1ccc(Cl)cc1` [3,3-Bis(p-chlorophenyl)propionamide], for which the inhibition at 5.2 µg/mL was found to be 31%.

For `CCOC(=O)CNC(=O)C=C(c1ccc(Cl)cc1)c1ccc(Cl)cc1` [Ethyl N-[3,3-bis(p-chlorophenyl)acryloyl]glycinate], the inhibition at 5.2 µg/mL was determined as 85%.

As for `CCCCN(CCCC)C(=O)CC(c1ccc(Cl)cc1)c1ccc(Cl)cc1` [N,N--Di-(n-butyl)-3,3-bis(p-chlorophenyl)propionamide], the inhibition at 5.2 µg/mL is 48%.

Take `CCCCN(CCCC)C(=O)CC(c1ccc(OC)cc1)c1ccc(OC)cc1` [N,N--Di-(n-butyl)-3,3-bis(p-methoxyphenyl)propionamide]: the inhibition at 5.2 µg/mL came to 95%.

`CCCCN(CCCC)C(=O)CC(c1ccc(C)cc1)c1ccc(C)cc1` [N,N--Di-(n-butyl)-3,3-bis(p-tolyl)propionamide]: the inhibition at 5.2 µg/mL was determined as 94%.

In the case of `O=C(CC(c1ccc(Cl)cc1)c1ccc(Cl)cc1)N(Cc1ccccc1)Cc1ccccc1` [N,N--Dibenzyl-3,3-bis(p-chlorophenyl)propionamide], the inhibition at 5.2 µg/mL turned out to be 93%.

For `COc1ccc(C(CC(=O)N(Cc2ccccc2)Cc2ccccc2)c2ccc(OC)cc2)cc1` [N,N--Dibenzyl-3,3-bis(p-methoxyphenyl)propionamide], the inhibition at 5.2 µg/mL came to 87%.

`Cc1ccc(C(CC(=O)N(Cc2ccccc2)Cc2ccccc2)c2ccc(C)cc2)cc1` [N,N--Dibenzyl-3,3-bis(p-tolyl)propionamide]: the inhibition at 5.2 µg/mL was determined as 68%.

Consider `CN(C)C(=O)CC(c1ccc(Cl)cc1)c1ccc(Cl)cc1` [N,N--Dimethyl-3,3-bis(p-chlorophenyl)propionamide], for which the inhibition at 5.2 µg/mL was 68%.

`O=C(CC(c1ccc(Cl)cc1)c1ccc(Cl)cc1)NC12CC3CC(CC(C3)C1)C2` [N--(1-Adamantyl)-3,3-bis(p-chlorophenyl)propionamide]: the inhibition at 5.2 µg/mL amounted to 97%.

Take `COc1ccc(C(CC(=O)NC23CC4CC(CC(C4)C2)C3)c2ccc(OC)cc2)cc1` [N--(1-Adamantyl)-3,3-bis(p-methoxyphenyl)propionamide]: the inhibition at 5.2 µg/mL was 89%.

On to `Cc1ccc(C(CC(=O)NC23CC4CC(CC(C4)C2)C3)c2ccc(C)cc2)cc1` [N--(1-Adamantyl)-3,3-bis(p-tolyl)propionamide], for which the inhibition at 5.2 µg/mL stood at 76%.

With `CCCCNC(=O)CC(c1ccc(Cl)cc1)c1ccc(Cl)cc1` [N--(n-Butyl)-3,3-bis(p-chlorophenyl)propionamide], the inhibition at 5.2 µg/mL is 92%.

In the case of `O=C(CC(c1ccc(Cl)cc1)c1ccc(Cl)cc1)NCc1ccccc1` [N--Benzyl-3,3-bis(p-chlorophenyl)propionamide], the inhibition at 5.2 µg/mL was determined as 35%.

On to `CCCCN(Cc1ccccc1)C(=O)CC(c1ccc(Cl)cc1)c1ccc(Cl)cc1` [N--Benzyl-N--(n-butyl)-3,3-bis(p-chlorophenyl)propionamide], for which the inhibition at 5.2 µg/mL stood at 45%.

With `COc1ccc(C(CC(=O)NCCc2ccc(OC)c(OC)c2)c2ccc(OC)cc2)cc1` [N--[2-(3,4-Dimethoxyphenyl)ethyl]-3,3-bis(p-methoxyphenyl)propionamide], the inhibition at 5.2 µg/mL came out at 78%.
